Measurements published in patent US9518060B2, “Substituted pyrrolo[3,4-c]pyrazoles as PKC kinase inhibitors” (PFIZER INC., priority 2007, dated 2016).

Molecular target: Protein Kinase C beta 2 (PKCβII) (Homo sapiens (Human), UniProt P05771)
Experiment: PKCβII coupled spectrophotometric kinase assay (PK/LDH, NADH absorbance at 340 nm)
Type: biochemical
Settings: apparent Ki, ATP competitive inhibition model (Morrison equation); 0.1 mM ATP, 5 nM PKC, 30° C.; read-out: Ki app
Method in brief: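 PK/LDH-coupled ADP detection (NADH loss at 340 nm), 20 min at 30° C, pH 7.4; 5 nM PKCβII, 0.15 mM pseudosubstrate peptide, 0.1 mM ATP, with CaCl2, PS and PMA activators, 7.5% DMSO. Apparent Ki from initial velocities fitted to ATP-competitive Morrison model over 10,000–0.169 nM inhibitor.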

Chain of Protein Kinase C beta 2 (PKCβII) (P05771 other isoform, or with tags, fused parts or gaps): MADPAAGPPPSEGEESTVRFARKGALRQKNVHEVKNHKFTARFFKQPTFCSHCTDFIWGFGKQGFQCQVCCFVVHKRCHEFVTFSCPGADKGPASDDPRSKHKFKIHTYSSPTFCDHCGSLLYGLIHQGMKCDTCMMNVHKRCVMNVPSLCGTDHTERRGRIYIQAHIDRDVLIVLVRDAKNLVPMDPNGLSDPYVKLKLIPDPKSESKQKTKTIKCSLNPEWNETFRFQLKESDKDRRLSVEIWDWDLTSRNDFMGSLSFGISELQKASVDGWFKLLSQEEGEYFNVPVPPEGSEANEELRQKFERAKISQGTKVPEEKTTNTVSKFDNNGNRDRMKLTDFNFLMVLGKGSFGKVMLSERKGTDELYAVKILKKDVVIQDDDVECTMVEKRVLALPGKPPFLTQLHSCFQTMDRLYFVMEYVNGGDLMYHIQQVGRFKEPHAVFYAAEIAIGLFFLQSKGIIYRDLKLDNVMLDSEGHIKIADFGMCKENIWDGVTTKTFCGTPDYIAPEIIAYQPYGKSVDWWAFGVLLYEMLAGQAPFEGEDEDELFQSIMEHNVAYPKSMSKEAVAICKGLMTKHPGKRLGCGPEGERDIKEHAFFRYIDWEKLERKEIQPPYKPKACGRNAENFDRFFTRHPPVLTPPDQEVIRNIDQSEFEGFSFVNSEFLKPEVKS

| Structure (SMILES) | Ki [µM] |
| --- | --- |
| COCCCOc1ncc(F)c(Nc2n[nH]c3c2CN(C(=O)N2C[C@@H](C)N(C)C[C@@H]2C)C3(C)C)n1 [Example K10, N-[5-fluoro-2-(3-methoxypropoxy)pyrimidin-4-yl]-6,6-dimethyl-5-{[(2S,5R)-2,4,5-trimethylpiperazin-1-yl]carbonyl}-1,4,5,6-tetrahydropyrrolo[3,4-c]pyrazol-3-amine] | 0.0284 |
| COCCOc1ncc(F)c(Nc2n[nH]c3c2CN(C(=O)N2CC(C)(C)N(C)C[C@@H]2C)C3(C)C)n1 [Example K11, N-[5-fluoro-2-(2-methoxyethoxy)pyrimidin-4-yl]-6,6-dimethyl-5-{[(2S)-2,4,5,5-tetramethylpiperazin-1-yl]carbonyl}-1,4,5,6-tetrahydropyrrolo[3,4-c]pyrazol-3-amine] | 0.0427 |
| CCOc1ncc(F)c(Nc2n[nH]c3c2CN(C(=O)N2C[C@H](C)N(C)C[C@@H]2C)C3(C)C)n1 [Example K13, 2(S),5(S)-{[dimethyl-4-methylpiperazin-1-yl]carbonyl}-N-(5-fluoro-2-ethoxypyrimidin-4-yl)-6,6-dimethyl-1,4,5,6-tetrahydropyrrolo[3,4-c]pyrazol-3-amine] | 0.0265 |
| CCOc1ncc(F)c(Nc2n[nH]c3c2CN(C(=O)N2CCN4CCC[C@@H]4C2)C3(C)C)n1 [Example K14, [3-(2-Ethoxy-5-fluoro-pyrimidin-4yl-amino)-6,6-dimethyl-4,6-dihydro-1H-pyrrolo[3,4-c]pyrazol-5-yl]-(R)-hexahydro-pyrrolo[1,2-a]pyrazin-2-yl-methanone] | 0.0717 |
| CCOc1ncc(F)c(Nc2n[nH]c3c2CN(C(=O)N2CCN(C)[C@H](C)C2)C3(C)C)n1 [Example K17, 5-{[(3R)-3,4-dimethylpiperazin-1-yl]carbonyl}-N-(2-ethoxy-5-fluoropyrimidin-4-yl)-6,6-dimethyl-1,4,5,6-tetrahydropyrrolo[3,4-c]pyrazol-3-amine] | 0.0444 |
| CCOc1ncc(F)c(Nc2n[nH]c3c2CN(C(=O)N2C[C@@H](C)N(CCC(F)(F)F)C[C@@H]2C)C3(C)C)n1 [Example K18, 5-{[(2S,5R)-2,5-dimethyl-4-(3,3,3-trifluoropropyl)piperazin-1-yl]carbonyl}-N-(2-ethoxy-5-fluoropyrimidin-4-yl)-6,6-dimethyl-1,4,5,6-tetrahydropyrrolo[3,4-c]pyrazol-3-amine] | 0.0253 |

The next compounds have a lower Ki than those just listed; values first:

| Ki [µM] | Structure (SMILES) |
| --- | --- |
| 0.0128 | COCCCOc1ncc(F)c(Nc2n[nH]c3c2CN(C(=O)N2CC(C)(C)N(C)C[C@@H]2C)C3(C)C)n1 [Example K9, N-[5-fluoro-2-(3-methoxypropoxy)pyrimidin-4-yl]-6,6-dimethyl-5-{[(2S)-2,4,5,5-tetramethylpiperazin-1-yl]carbonyl}-1,4,5,6-tetrahydropyrrolo[3,4-c]pyrazol-3-amine] |
| 0.0152 | COCCOc1ncc(F)c(Nc2n[nH]c3c2CN(C(=O)N2C[C@@H](C)N(C)C[C@@H]2C)C3(C)C)n1 [Example K12, N-[5-fluoro-2-(2-methoxyethoxy)pyrimidin-4-yl]-6,6-dimethyl-5-{[(2S,5R)-2,4,5-trimethylpiperazin-1-yl]carbonyl}-1,4,5,6-tetrahydropyrrolo[3,4-c]pyrazol-3-amine] |
| 0.0112 | CCOc1ncc(F)c(Nc2n[nH]c3c2CN(C(=O)N2C[C@]4(C)CCCN4C[C@@H]2C)C3(C)C)n1 [Example K15, 5-{[(3S,8aS)-3,8a-dimethylhexahydropyrrolo[1,2-a]pyrazin-2(1H)-yl]carbonyl}-N-(2-ethoxy-5-fluoropyrimidin-4-yl)-6,6-dimethyl-1,4,5,6-tetrahydropyrrolo[3,4-c]pyrazol-3-amine] |
| < 0.01 | CCOc1ncc(F)c(Nc2n[nH]c3c2CN(C(=O)N2C[C@@H](C)N(CC4CCOCC4)C[C@@H]2C)C3(C)C)n1 [Example K19, 5-{[(2S,5R)-2,5-dimethyl-4-(tetrahydro-2H-pyran-4-ylmethyl)piperazin-1-yl]carbonyl}-N-(2-ethoxy-5-fluoropyrimidin-4-yl)-6,6-dimethyl-1,4,5,6-tetrahydropyrrolo[3,4-c]pyrazol-3-amine] |
